Measured values taken from patent US7169970B2, “Herbicide resistant plants” (priority 2000, dated 2007).
Structures can show the parent of a compound that is named as a salt.

Columns and labels:
Assay type in all cases: biochemical
resistant forms of EPSPS = assay: EPSPS assays of plant extracts in the presence of glyphosate, resistant enzyme; details: 0.1 mM N-(phosphonomethyl)glycine; 0.1 mM 14C-PEP; 0.75 mM shikimate-3-Pi; estimated
Protocol: (§1) Assays are carried out generally according to the radiochemical method of Padgette et al 1987 (Archives of Biochemistry and Biophysics, 258(2) 564–573) with K+ions as the major species of cationic counterion. Assays in a total volume of 50 μl, in 50 mM Hepes(KOH) pH 7.0 at 25° C., contain purified enzyme or plant extract (see below) diluted appropriately in Hepes pH 7.0 containing 10% glycerol, and 5 mM DTT, ^14C PEP either as variable-substrate (for kinetic determinations) or fixed at 100 or 250 μM and shikimate 3 Phosphate (K+ salt) at 0.75 or 2 mM as indicated. Optionally, for assays of crude plant extracts, assays also contain 5 mM KF and/or 0.1 mM ammonium molybdate. Assays are started with the addition of ^14C phosphoenolpyruvate (cyclohexylammonium+salt) and stopped after 2–10 minutes (2 minutes is preferable) with the addition of 50 μl of a solution of 1 part 1M acetic acid and 9 parts ethanol. […] Apparent Km and Vmax values are determined by least squares fit to a hyperbola with simple weighting using the Grafit 3.09b from Erithacus Software Ltd. Km values are generally ascertained using 8–9 concentrations of variable substrate ranging from Km/2–10 Km and triplicate points. […]

[1] = system: sensitive w/t form of EPSPS; assay: EPSPS assays of plant extracts in the presence of glyphosate, sensitive w/t enzyme; details: 0.1 mM N-(phosphonomethyl)glycine; 0.1 mM 14C-PEP; 0.75 mM shikimate-3-Pi
Protocol: as §1

[2] = target: T1, mutant Brassica napus EPSPS (Brassica napus, UniProt P17688, P178S/T174I); assay: Radiochemical EPSPS assay of purified mutant Brassica napus EPSPS
T1 construct: The mature mutant Brassica napus EPSPS protein is purified; initiating Met (N); made in house; host or cells: E. coli BL21 (DE3) RP, vector pET24a
T1 sequence (P17688 73-516 T174I/P178S): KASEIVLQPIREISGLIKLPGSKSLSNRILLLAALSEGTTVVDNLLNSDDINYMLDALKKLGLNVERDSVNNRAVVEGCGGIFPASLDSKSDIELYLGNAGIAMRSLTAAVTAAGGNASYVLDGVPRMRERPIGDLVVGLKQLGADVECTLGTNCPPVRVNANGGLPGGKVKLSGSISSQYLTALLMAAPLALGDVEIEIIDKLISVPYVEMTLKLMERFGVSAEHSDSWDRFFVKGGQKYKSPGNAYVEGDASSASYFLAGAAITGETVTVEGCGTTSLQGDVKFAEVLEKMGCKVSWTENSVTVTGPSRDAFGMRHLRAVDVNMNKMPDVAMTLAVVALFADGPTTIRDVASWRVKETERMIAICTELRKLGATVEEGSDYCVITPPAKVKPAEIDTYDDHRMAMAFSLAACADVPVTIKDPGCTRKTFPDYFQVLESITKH
Protocol: as §1, with “^14C PEP either as variable-substrate (for kinetic determinations) or fixed at 100 or 250 μM and shikimate 3 Phosphate” left out
The mature mutant Brassica napus EPSPS protein is purified at ˜4 C as follows. […] EPSPS-containing fractions detected on the basis of EPSPS enzyme activity are combined and loaded onto an xk16 column containing 20 ml of HP Q-Sepharose equilibrated with S200 buffer. […]

Row | Structure (SMILES) | inhibition of resistant forms of EPSPS (resistant forms of EPSPS) [%] | inhibition of sensitive w/t EPSPS [1] [%] | IC50 ([2]; at 40 μM PEP, 2 mM shikimate-3-Pi, purified enzyme, read-out: IC50 value for the potassium salt of glyphosate) [µM] | Ki ([2]; purified mutant EPSPS, read-out: estimated Ki value for potassium glyphosate) [µM]
1 | O=C(O)CNCP(=O)(O)O [N-(phosphonomethyl)glycine] | < 8.5 | > 98 | – | –
2 | O=C(O)CNCP(=O)(O)O [potassium salt of glyphosate] | – | – | ~600 | ~450
